Key:
whole blood = test: Isolated 25-mL oxygenator circuit (Example II); settings: 2 micromolar
Method: FIG. 18 is a photograph of the isolated 25-mL oxygenator circuit, the principal components of which are a 5-mL venous reservoir, a custom-designed polypropylene membrane oxygenator, segments of 1.6 mm internal diameter silicone tubing that connect the oxygenator with the reservoir, and a small roller pump. The oxygenator is constructed of two 10 cm×10 cm rectangular Plexiglas® shells that surround and hold a 9.5 cm×9.5 cm×1 mm polypropylene membrane. Its priming volume is 4 mL. The pump circulates the blood continuously from the reservoir through the oxygenator and back to the reservoir.
Unpublished experiments have shown that the thrombogenicity of the isolated 25-mL oxygenator circuit resembles the thrombogenicity of a CPB circuit. […] Clot formation occurred approximately 30 minutes after circulation was started. […] In contrast, UFH 5, U/mL, as well as the combination of RNA9.3t, RNA11F7t, and thrombin aptamer both prevented clot formation in blood circulated for 2 hours in the isolated circuit.

FIXa = target: T1, FIXa (Homo sapiens, UniProt P00740); settings: clinical studies; cited from earlier work
T1 construct: host or cells: circulating blood of trial subjects (endogenous protein)

[1] = test system: clot formation in whole blood; test: TEG of whole blood, coagulation triggered by tissue factor (Example I); type: cell-based; settings: TF; for clot formation (in words): FVIIa aptamer 0.5, FIXa aptamer 1.0, FXa aptamer 1.0 micromolar
Method: TEG is a waveform generated from serial measurements of the torque transmitted from a small oscillating cup to the tip of a metal pin inserted into the cup by a 360 microliter sample of blood or plasma added to the cup.
A 360 microliter blood sample has been added to the cup. For 180 minutes after the sample is added, the cup oscillates alternatively clockwise and counterclockwise through an arc of 4° 45′ at a frequency of one oscillation cycle—i. e., one clockwise rotation and one counterclockwise rotation—every 10 seconds. The lower end of the pin is immersed by the sample; the upper end is suspended from a torsion wire. The TEG analyzer records a single measurement of rotation-induced torque after each clockwise rotation and after each counterclockwise rotation of the cup. “The torque of the rotating cup is transmitted to the immersed pin only after fibrin-platelet bonding has linked the cup and [the] pin together. The strength of these fibrin-platelet bonds affects the magnitude of the pin motion, such that strong clots move the pin directly in phase with the cup motion. Thus, the magnitude of the output is directly related to the strength of the formed clot . . . . [If] the clot retracts or lyses, these bonds are broken and the transfer of cup motion is diminished. The rotation movement of the pin is converted by a mechanical-electrical transducer to an electrical signal which can be monitored by a computer” (TEG 5000 User Manual, pp 3-4, 1999-2007)). The computer converts the series of electrical signals into the TEG tracing.

[2] = aptamer/antidote pair; neonatal porcine cardiopulmonary bypass; cited from earlier work
[3] = Cardiopulmonary bypass on a juvenile pig; type: in vivo; settings: 3-hr period of CPB
human prothrombin = human prothrombin (Homo sapiens, UniProt P00734); settings: read-out: apparent Kd; cited from earlier work

T1 sequence (P00740 227-461 limits assumed): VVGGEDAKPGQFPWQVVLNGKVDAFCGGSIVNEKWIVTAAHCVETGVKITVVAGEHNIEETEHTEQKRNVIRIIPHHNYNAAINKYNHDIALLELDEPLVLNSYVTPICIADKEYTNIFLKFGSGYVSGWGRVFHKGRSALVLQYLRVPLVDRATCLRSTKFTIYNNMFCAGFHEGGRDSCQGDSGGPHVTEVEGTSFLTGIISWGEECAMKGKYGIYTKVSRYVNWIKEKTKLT
T1 sequence (P00740 47-191 partner limits assumed): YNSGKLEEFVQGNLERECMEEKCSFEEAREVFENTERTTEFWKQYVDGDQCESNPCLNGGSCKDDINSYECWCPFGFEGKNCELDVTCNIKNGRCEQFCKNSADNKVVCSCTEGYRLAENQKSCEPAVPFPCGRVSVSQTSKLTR

Substance | clot formation in isolated oxygenator circuit (in words) (whole blood) | time of clot formation after circulation was started (whole blood) | FIXa activity inhibited in vivo (FIXa) | clot formation (in words) [1] | anticoagulation in CPB model (in words) [2] | anticoagulation during CPB (in words) [3] | MA ([1]; 1.0 micromolar, buffer 69.7 mm) [mm] | R, lag time ([1]; 1.0 micromolar, buffer 4.4 minutes) [min] | α ([1]; 1.0 micromolar, buffer about 55 degrees) [degrees] | Kd (human prothrombin) [nM]
9.3T: FIXa aptamer, 2'-fluoropyrimidine modified RNA, SEQ ID NO: 1 (AUGGGGACUAUACCGCGUAAUGCUGCCUCCCCAU; 2'-fluoro at CU, RNA at AG, backbone not given here) [Aptamer 9.3T] | failed to prevent clot formation | approximately 30 minutes | greater than 99% | none of those aptamers prevented clot formation | sufficiently anticoagulated blood | failed to effect satisfactory anticoagulation |  |  |  | 
11F7T: FXa aptamer, 2'-fluoropyrimidine modified RNA, SEQ ID NO: 2 (GAGAGCCCCAGCGAGAUAAUACUUGGCCCCGCUCUU; 2'-fluoro at CU, RNA at AG, backbone not given here) [Aptamer 11F7T] |  |  |  | did not prevent the ultimate development of clot |  |  | 59.5 | 17.8 | 24 | 
R9D-14T: prothrombin/thrombin aptamer, 58-base truncation of RNA9D-14, SEQ ID NO: 3 (GGCGGTCGATCACACAGTTCAAACGTAATAAGCCAATGTACGAGGCAGACGACTCGCC; 2'-fluoro at CT, RNA at AG, backbone and T or U not given here) [Aptamer R9D-14T] |  |  |  |  |  |  |  |  |  | 10

Reference: patent US9687529B2, “Method of controlling coagulation” (Duke University, priority 2011, dated 2017)
